According to ChEMBL document CHEMBL1201862, “PubChem BioAssay data set” (2004):
Active and inactive are the calls of the source. Cut-off read from the data, not from the text of the source, for most assays here: actives have a measured EC50 and inactives only a lower limit.

What was measured:
[1] = biological target: Large T antigen (Simian virus 40, UniProt P03070); format: functional, Betapolyomavirus macacae;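 note: Confirmatory-stage PubChem screen for compounds that inhibit SV40 T antigen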
[2] = biological target: T1, Replicative DNA helicase DnaB (Mycobacterium tuberculosis, UniProt P9WMR3); assay: DnaB intein splicing inhibitors, dose response, biochemical, cell-free fluorescence (AID 449749); format: functional
T1 sequence (P9WMR3 whole entry): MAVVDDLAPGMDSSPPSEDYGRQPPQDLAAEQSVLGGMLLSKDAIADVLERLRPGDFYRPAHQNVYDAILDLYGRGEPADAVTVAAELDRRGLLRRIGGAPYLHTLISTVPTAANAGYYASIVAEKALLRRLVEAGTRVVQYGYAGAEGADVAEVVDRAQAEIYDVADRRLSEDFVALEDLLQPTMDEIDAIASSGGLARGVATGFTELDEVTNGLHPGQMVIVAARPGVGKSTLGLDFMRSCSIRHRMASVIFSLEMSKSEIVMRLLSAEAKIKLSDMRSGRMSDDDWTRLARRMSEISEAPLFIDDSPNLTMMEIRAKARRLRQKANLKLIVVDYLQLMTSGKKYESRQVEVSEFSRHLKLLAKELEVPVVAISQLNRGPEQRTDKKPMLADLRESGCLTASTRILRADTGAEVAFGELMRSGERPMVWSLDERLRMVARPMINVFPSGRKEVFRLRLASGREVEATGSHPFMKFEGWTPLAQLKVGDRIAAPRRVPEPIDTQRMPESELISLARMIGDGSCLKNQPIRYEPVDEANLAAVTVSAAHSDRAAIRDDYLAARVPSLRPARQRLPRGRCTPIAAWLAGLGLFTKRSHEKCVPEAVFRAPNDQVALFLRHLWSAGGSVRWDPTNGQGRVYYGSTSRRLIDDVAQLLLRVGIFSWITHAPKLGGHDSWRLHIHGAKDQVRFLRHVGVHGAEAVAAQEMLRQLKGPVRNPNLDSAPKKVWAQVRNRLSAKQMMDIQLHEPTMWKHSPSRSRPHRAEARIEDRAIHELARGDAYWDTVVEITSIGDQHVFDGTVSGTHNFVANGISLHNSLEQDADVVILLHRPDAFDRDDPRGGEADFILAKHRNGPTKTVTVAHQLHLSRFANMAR

[3] = biological target: T2, Protein RecA (Mycobacterium tuberculosis, UniProt P9WHJ3); assay: Fluorescence Cell-Free Homogeneous Dose Retest to Identify Inhibitors of RecA-Intein Splicing Activity. [Related pubchem assays (depositor defined):AID2097, AID2223, AID489010, AID492950]; format: functional
T2 sequence (P9WHJ3 whole entry): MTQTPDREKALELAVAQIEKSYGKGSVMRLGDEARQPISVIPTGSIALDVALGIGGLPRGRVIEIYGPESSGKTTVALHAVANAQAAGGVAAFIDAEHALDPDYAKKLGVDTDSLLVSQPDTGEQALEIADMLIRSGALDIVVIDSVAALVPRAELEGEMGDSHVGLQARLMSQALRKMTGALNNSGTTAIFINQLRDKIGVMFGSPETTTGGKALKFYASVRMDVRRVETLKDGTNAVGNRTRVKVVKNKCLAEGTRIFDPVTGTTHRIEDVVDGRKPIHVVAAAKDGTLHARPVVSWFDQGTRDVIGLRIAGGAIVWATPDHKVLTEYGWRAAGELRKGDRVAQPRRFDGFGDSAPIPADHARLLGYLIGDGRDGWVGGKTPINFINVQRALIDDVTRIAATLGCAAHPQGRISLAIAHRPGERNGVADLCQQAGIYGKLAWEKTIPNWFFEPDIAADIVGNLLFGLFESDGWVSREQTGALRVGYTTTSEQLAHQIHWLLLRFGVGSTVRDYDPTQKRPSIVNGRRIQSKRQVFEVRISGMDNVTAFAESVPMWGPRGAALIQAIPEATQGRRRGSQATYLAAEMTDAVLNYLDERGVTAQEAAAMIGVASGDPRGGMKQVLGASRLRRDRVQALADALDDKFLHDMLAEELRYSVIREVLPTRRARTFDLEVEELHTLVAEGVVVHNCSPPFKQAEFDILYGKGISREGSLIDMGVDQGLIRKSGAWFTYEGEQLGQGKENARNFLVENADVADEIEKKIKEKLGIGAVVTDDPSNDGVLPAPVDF

[4] = biological target: Dual specificity tyrosine-phosphorylation-regulated kinase 1A (Rattus norvegicus, UniProt Q63470); format: biochemical, Homo sapiens
[5] = tested on: BJ; assay: cytotoxicity toward Ras-transformed BJeLR fibroblasts, dose response, cell-based, alamar blue fluorescence, cherrypicked samples (AID 2631); format: functional; settings: Homo sapiens;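 note: confirmatory dose-response assay in RAS-dependent BJ fibroblasts engineered with TERT, LT and ST, with cytotoxicity read by fluorescence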
[6] = tested on: Vero; assay: cells; format: functional; settings: Chlorocebus sabaeus
[7] = tested on: BJ; assay: cytotoxicity toward BJ-TERT fibroblasts, dose response, cell-based, RAS-independent, luminescence (AID 1933); format: functional; settings: Homo sapiens
[8] = tested on: BJ; assay: cells; format: functional, cell-based, Homo sapiens; settings: Homo sapiens, BJ
[9] = tested on: BJ; assay: cytotoxicity toward BJ-TERT-LT-ST fibroblasts, dose response, cell-based, RAS-independent, luminescence (AID 1935); format: functional; settings: Homo sapiens;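 note: BJ fibroblasts immortalized with TERT plus LT and ST oncogenes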
[10] = cytotoxicity toward DRD oncogenic fibroblasts, dose response, cell-based, non-viral oncogenic, luminescence (AID 1934); format: functional; settings: Homo sapiens
[11] = biological target: T3, Endoribonuclease toxin MazF (Escherichia coli K-12, UniProt P0AE70); assay: MazF toxin RNase activators, dose response, biochemical, fluorescence, single-stranded RNA substrate, uHTS hits (AID 588481); format: functional
T3 sequence (P0AE70 whole entry): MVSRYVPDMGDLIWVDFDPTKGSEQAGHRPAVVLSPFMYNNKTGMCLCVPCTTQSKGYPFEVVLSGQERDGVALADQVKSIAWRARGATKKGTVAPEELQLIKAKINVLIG

[12] = biological target: T3, Endoribonuclease toxin MazF; assay: fluorescent RNA oligo signal without MazF, dose response, counter-screen for MazEF activator project, biochemical, fluorescence, single-stranded RNase substrate (AID 588502); format: functional
[13] = NIH-3T3 fibroblast cytotoxicity, dose response, cytotoxicity control, cell-based, fluorescence, Alamar Blue, secondary assay (AID 2327); format: functional;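 note: NIH-3T3 mouse fibroblasts cultured with fluconazole at 8 µg/mL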
[14] = C. albicans growth with fluconazole, confirmation, fluorescence, retest (AID 2467); format: functional, cell-based
[15] = inhibitors of intracellular T. cruzi replication, confirmation, NIH3T3 host cells, beta-gal luminescence (AID 2044); format: functional, cell-based;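 note: intracellular parasites grown in NIH/3T3 mouse fibroblasts as host cells; luminescent beta-galactosidase reporter signal from transgenic T. cruzi replicating inside host cells; inhibitors lower the luminescence signal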
[16] = biological target: T4, Serine/threonine-protein phosphatase (Candida dubliniensis (strain CD36 / CBS 7987 / NCPF 3949 / NRRLY-17841) (Yeast), UniProt B9W6M3); assay: calcineurin pathway inhibitors in yeast reporter, dose response, S. cerevisiae, CDRE-lacZ, luminescence, secondary (AID 2388); format: functional, cell-based;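 note: yeast reporter cells carrying a calcineurin-responsive lacZ construct stimulated with calcium chloride; luminescent beta-galactosidase reporter signal in whole cells rather than isolated phosphatase activity; potency for inhibition where a drop in reporter signal means calcineurin blockade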
T4 sequence (B9W6M3 whole entry): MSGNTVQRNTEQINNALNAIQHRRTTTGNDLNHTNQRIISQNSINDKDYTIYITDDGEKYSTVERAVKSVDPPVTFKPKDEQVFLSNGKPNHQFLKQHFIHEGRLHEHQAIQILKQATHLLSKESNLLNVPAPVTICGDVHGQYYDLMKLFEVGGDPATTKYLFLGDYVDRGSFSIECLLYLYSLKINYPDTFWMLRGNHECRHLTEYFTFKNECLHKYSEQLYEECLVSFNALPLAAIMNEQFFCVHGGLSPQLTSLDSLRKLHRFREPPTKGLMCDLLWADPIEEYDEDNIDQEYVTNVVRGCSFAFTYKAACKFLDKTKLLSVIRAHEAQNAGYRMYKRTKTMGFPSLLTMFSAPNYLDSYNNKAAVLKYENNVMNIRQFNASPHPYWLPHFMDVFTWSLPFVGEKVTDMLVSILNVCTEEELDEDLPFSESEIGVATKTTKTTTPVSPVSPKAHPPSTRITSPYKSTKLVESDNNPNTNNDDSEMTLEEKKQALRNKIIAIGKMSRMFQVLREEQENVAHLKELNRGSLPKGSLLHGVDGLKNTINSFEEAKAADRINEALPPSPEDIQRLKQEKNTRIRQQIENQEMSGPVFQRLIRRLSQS

[17] = cytotoxicity toward NIH3T3 fibroblasts, dose response, counter-screen, cell-based, ATP luminescence, mouse fibroblasts (AID 2010); format: functional;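 note: cells exposed to compound for about 90 hours before reading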
[18] = biological target: ATP-dependent molecular chaperone HSP82 (Candida albicans (strain WO-1) (Yeast), UniProt C4YTQ8); assay: loss of DOC-induced GRE-beta-galactosidase reporter signal, dose response, Hsp90 inhibitor project, S. cerevisiae, luminescence (AID 2400); format: functional, cell-based;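 note: beta-galactosidase luminescence from glucocorticoid response element reporter as proxy for Hsp90 function; inhibitor potency where signal loss means Hsp90 inhibition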
[19] = tested on: Streptococcus sp. 'group A'; assay: growth inhibition of control SK(-) GAS strain, dose response, counter-screen for streptokinase expression inhibitor project, luminescence, kanamycin, BacTiterGlo, confirmation (AID 1900); format: functional, organism-based
[20] = biological target: T5, Streptokinase A (Streptococcus pyogenes serotype M1, UniProt P10520); assay: S. pyogenes streptokinase expression inhibitors, potency, dose response, plasminogen activation absorbance, OD405 (AID 1914); format: functional, Streptococcus pyogenes M1 GAS;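 note: secreted streptokinase activity via plasminogen activation per viability signal from cell pellet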
T5 sequence (P10520 whole entry): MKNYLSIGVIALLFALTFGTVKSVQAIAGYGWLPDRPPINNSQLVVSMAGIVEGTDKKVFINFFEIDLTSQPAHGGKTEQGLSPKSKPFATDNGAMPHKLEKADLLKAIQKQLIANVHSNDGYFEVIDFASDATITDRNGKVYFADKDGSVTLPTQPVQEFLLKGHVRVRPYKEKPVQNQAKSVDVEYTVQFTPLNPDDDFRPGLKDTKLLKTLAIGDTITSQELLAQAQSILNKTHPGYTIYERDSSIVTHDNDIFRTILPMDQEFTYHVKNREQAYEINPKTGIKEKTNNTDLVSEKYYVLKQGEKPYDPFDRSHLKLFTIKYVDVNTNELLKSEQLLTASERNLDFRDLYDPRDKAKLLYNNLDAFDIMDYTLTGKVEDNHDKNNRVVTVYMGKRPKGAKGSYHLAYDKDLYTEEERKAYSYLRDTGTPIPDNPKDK

[21] = tested on: Streptococcus; assay: Group A Streptococcus viability loss, dose response, counter-screen for streptokinase expression inhibitor project, luminescence, BacTiterGlo (AID 1915); format: functional, organism-based;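 note: potency for reduction of bacterial viability or growth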
[22] = biological target: FAD-linked sulfhydryl oxidase ALR (Homo sapiens, UniProt P55789); assay: inhibitors of human ALR sulfhydryl oxidase, dose response, biochemical, H2O2 detection, luminescence, cherry-pick (AID 493248)
[23] = tested on: Escherichia coli; assay: microbe, parasite or virus in culture
[24] = tested on: HEK293; assay: inhibitors of LMP1-driven NF-kB reporter, dose response, cell-based, HEK293, luciferase, cherry-pick (AID 588343); format: functional; settings: Homo sapiens
[25] = HEp-2 cell cytotoxicity, dose response, cytotoxicity control for RSV inhibitor project, HTS (AID 2410); format: functional; settings: human respiratory syncytial virus
[26] = tested on: Vero; assay: cells; format: functional, cell-based; settings: Chlorocebus sabaeus
[27] = cells

ATP-dependent molecular chaperone HSP82, sequence (C4YTQ8 whole entry): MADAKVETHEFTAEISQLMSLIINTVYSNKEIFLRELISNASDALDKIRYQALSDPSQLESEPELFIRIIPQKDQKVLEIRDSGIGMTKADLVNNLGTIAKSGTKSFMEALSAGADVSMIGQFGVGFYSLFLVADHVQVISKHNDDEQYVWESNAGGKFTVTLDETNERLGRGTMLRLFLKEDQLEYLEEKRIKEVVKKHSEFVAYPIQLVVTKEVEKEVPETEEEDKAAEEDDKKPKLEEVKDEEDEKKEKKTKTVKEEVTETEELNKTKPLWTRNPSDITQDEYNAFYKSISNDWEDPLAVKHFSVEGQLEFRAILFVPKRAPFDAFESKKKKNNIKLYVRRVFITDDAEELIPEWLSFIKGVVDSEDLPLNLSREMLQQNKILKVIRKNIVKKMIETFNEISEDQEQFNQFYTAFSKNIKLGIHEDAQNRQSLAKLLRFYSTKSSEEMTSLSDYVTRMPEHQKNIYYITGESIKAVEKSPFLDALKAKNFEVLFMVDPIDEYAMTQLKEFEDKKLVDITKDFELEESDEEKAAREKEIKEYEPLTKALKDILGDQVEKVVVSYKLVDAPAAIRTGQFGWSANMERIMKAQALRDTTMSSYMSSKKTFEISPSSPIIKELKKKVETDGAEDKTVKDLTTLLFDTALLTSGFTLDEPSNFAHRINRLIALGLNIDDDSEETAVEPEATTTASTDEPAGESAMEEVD
Large T antigen, sequence (P03070 whole entry): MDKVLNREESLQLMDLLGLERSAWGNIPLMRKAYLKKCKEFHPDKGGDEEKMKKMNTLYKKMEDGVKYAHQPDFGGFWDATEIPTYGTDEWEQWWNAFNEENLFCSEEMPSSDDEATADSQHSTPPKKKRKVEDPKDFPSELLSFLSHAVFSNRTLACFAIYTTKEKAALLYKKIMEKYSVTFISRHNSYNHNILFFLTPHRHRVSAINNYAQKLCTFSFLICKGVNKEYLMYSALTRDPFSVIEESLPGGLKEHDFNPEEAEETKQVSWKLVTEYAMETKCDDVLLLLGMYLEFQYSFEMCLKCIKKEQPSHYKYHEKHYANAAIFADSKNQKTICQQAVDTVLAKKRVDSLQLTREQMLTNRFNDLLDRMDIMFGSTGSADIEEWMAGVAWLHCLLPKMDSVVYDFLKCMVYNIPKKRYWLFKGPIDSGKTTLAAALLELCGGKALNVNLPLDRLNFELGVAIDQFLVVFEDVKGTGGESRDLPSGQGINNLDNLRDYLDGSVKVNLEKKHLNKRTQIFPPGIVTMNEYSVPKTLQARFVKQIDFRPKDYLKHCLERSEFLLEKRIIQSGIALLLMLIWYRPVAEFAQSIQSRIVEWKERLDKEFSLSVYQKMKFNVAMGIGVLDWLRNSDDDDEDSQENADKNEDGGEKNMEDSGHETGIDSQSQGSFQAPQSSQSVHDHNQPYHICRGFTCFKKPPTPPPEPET
FAD-linked sulfhydryl oxidase ALR, sequence (P55789 whole entry): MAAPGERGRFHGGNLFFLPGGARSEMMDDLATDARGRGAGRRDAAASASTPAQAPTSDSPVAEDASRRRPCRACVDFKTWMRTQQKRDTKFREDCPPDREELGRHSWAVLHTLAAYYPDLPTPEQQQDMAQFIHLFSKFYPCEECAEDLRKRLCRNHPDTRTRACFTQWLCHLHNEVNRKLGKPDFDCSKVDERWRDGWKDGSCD

COc1cc(C=C2C(=O)c3ccccc3C2=O)ccc1O
IC50 [1]: 15.1 µM (active)
AC50 [2]: > 380 µM (inactive)
EC50 [3]: 22.9 µM (active)
AC50 [4]: 0.585 µM (active)

COCCCNC1=NN=C(c2cc(C)n(Cc3ccco3)c2C)CS1
EC50 [5]: 201 nM (active)
CC50 [6]: 2.27 µM (active)

C[C@@H]1C=CC(=O)O[C@@H]1c1ccc(C(F)(F)F)cc1
EC50 [7]: 49.6 µM (active)
EC50 [8]: 5.53 µM (active)
EC50 [9]: 12.4 µM (active)
EC50 [10]: 2.27 µM (active)
EC50 [5]: 409 nM (active)

CC(=O)N1CC[C+]([N-]NS(=O)(=O)c2cccc([N+](=O)[O-])c2)CC1
EC50 [11]: > 99 µM (inactive)
EC50 [12]: 23.9 µM (inactive)

O=C1NC(=O)/C(=C\c2ccc(Br)o2)S1
EC50 [13]: 87.3 µM (inconclusive)
EC50 [14]: 1.3 µM (active)
EC50 [15]: 21.7 µM (active)
EC50 [16]: > 180 µM (inactive)
EC50 [17]: > 60 µM (not active)
AC50 [4]: 4.62 µM (active)
EC50 [18]: > 150 µM (inactive)

O=C(Nc1nnc(-c2ccco2)o1)c1ccc(Cl)cc1
EC50 [13]: > 150 µM (inactive)
EC50 [19]: 983 nM (active)
EC50 [20]: > 150 µM (not active)
EC50 [14]: 0.9 µM (active)
EC50 [16]: > 180 µM (inactive)
EC50 [21]: 15.6 µM (active)
EC50 [18]: > 150 µM (inactive)

Cc1cc(C(C#N)c2ccccc2F)n2ncnc2n1 (configuration not stated)
EC50 [13]: > 150 µM (inconclusive)
EC50 [14]: 1.28 µM (active)
EC50 [16]: > 180 µM (inactive)
AC50 [22]: 34.3 µM (active)
EC50 [18]: > 160 µM (inactive)
AC50 [23]: 36.4 µM (active)

c1ccc2c(-c3ccncc3)c[nH]c2c1
AC50 [24]: 144 µM (active)
AC50 [4]: 2.41 µM (active)

Cc1ccc(S(=O)(=O)N2CCN(CC(=O)NC(=O)NCc3ccccc3)CC2)cc1C
EC50 [11]: > 99 µM (inactive)
EC50 [12]: > 99 µM (inactive)

CCOC(=O)C1=C(NC(=S)NC(=O)c2ccccc2)c2ccccc2CC1C(C)C (configuration not stated)
CC50 [25]: 9.61 µM (active)
EC50 [7]: > 150 µM (not active)
EC50 [8]: 54.1 µM (inconclusive)
EC50 [9]: > 150 µM (not active)
EC50 [10]: 60.6 µM (active)
IC50 [26]: 9.18 µM (active)
CC50 [6]: > 25 µM (active)
IC50 [27]: 3.58 µM (active)

Cc1cnc(NC(=O)COc2cccc3c2OC(C)(C)C3)s1
CC50 [25]: 30.2 µM (active)
IC50 [26]: 13 µM (active)
CC50 [6]: > 25 µM (active)
IC50 [27]: 22.2 µM (active)

O=C(COC(=O)c1ccccc1C(=O)N1CCN(c2ccccc2)CC1)NCc1ccccc1
EC50 [11]: > 99 µM (inactive)
EC50 [12]: > 99 µM (inactive)

Cc1ccccc1NC(=O)CCN1CCN(CCO)CC1
AC50 [23]: 23.6 µM (active)
